Each compound was assayed against T1, XIAP BIR3 (Homo sapiens, UniProt P98170) (assay: Fluorescence polarization binding of IAP antagonists to IAP-BIR3 (competition with AbuRPF-K(5-Fam)-NH2)). Details: Table 1, monomeric IAP antagonists (sugar-modified).
T1 construct: 40 nM of an IAP-BIR3
Method: The binding affinity of illustrative compounds of the present invention to an IAP was determined substantially as described by Nikolovska-Coleska, Z. et. al. (Analytical Biochemistry (2004), vol. 332:261-273) using a variety of fluorogenic substrates and is reported as a Kd value. Briefly, various concentrations of IAP antagonists were mixed with 5 nM fluorescently labeled peptide (AbuRPF-K(5-Fam)-NH2) and 40 nM of an IAP-BIR3 for 15 min at RT in […] of 0.1M Potassium Phosphate buffer, pH 7.5 containing […] bovine g-globulin. Following incubation, the polarization values (mP) were measured on a Victor2V using a 485 nm excitation filter and a 520 nm emission filter. IC50 values were determined from the plot using nonlinear least-squares analysis using GraphPad Prism.

T1 sequence (P98170 241-356 limits assumed): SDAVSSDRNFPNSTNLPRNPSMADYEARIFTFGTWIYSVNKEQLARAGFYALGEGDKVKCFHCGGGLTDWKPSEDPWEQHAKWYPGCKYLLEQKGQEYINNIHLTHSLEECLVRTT

Row | Structure (SMILES) | Kd
1 | CN[C@@H](C)C(=O)N[C@H](C(=O)N1CCC[C@H]1Cc1c(-c2ccc(F)cc2)n(C2OC[C@@H](O)[C@H](O)[C@H]2O)c2cc(F)ccc12)C(C)C (some centres unmarked) [B] | < 100 nM
2 | CNC(C)C(=O)NC(C(=O)N1CCCC1Cc1c(-c2ccc(F)cc2)n(C2OCC(O)C(O)C2O)c2cc(F)ccc12)C(C)(C)C (centres unmarked) [Compound A] | < 100 nM
3 | CNC(C)C(=O)NC(C(=O)N1CCCC1Cc1cn(C2OC(C)C(O)C(O)C2O)c2cc(F)ccc12)C(C)(C)C (centres unmarked) [F] | < 100 nM
4 | CNC(C)C(=O)NC(C(=O)N1CCCC1Cc1cn(C2OC(C)C(O)C(O)C2O)c2cc(F)ccc12)C1CCCCC1 (centres unmarked) [G] | < 100 nM
5 | CNC(C)C(=O)NC(C(=O)N1CCCC1Cc1cn(C2OC(C)C(O)C(O)C2O)c2cc(F)ccc12)C(C)C (centres unmarked) [H] | < 100 nM
6 | CN[C@@H](C)C(=O)N[C@H](C(=O)N1CCC[C@H]1Cc1cn(C2OC[C@@H](O)[C@H](O)[C@H]2O)c2cc(F)ccc12)C(C)(C)C (some centres unmarked) [N] | < 100 nM
7 | CN[C@@H](C)C(=O)N[C@H](C(=O)N1CCC[C@H]1Cc1c(-c2ccc(F)cc2)n(C2O[C@@H](C)[C@@H](O)[C@@H](O)[C@@H]2O)c2cc(F)ccc12)[C@@H](C)OC (some centres unmarked) [O] | < 100 nM
8 | CNC(C)C(=O)NC(C(=O)N1CC(O)CC1Cc1c(-c2ccc(F)cc2)n(C2OC(C)C(O)C(O)C2O)c2cc(F)ccc12)C(C)(C)C (centres unmarked) [T] | < 100 nM
9 | CNC(C)C(=O)NC(C(=O)N1CC(O)CC1Cc1c(-c2ccc(F)cc2)n(C2OC(C)C(O)C(O)C2O)c2cc(F)ccc12)C(C)OC (centres unmarked) [U] | < 100 nM

Same assay, conditions: Table 2, dimeric IAP antagonists

Row | Structure (SMILES) | Kd
10 | CN[C@@H](C)C(=O)N[C@H](C(=O)N1CCC[C@H]1Cc1c(-c2c(C[C@@H]3CCCN3C(=O)[C@@H](NC(=O)[C@H](C)NC)C(C)C)c3cc(F)ccc3n2C2O[C@H](CO)[C@H](O)[C@H](O)[C@H]2O)[nH]c2ccc(F)cc12)C(C)C (some centres unmarked) [AA] | < 100 nM
11 | CN[C@@H](C)C(=O)N[C@H](C(=O)N1CCC[C@H]1Cc1c(-c2c(C[C@@H]3CCCN3C(=O)[C@@H](NC(=O)[C@H](C)NC)C(C)C)c3cc(F)ccc3n2C2O[C@H](CO)[C@@H](O)[C@H](O)[C@H]2O)[nH]c2ccc(F)cc12)C(C)C (some centres unmarked) [CC] | < 100 nM
12 | CNC(C)C(=O)NC(C(=O)N1CCCC1Cc1c(-c2c(CC3CCCN3C(=O)C(NC(=O)C(C)NC)C(C)C)c3cc(F)ccc3n2C2OC(C)C(O)C(O)C2O)[nH]c2ccc(F)cc12)C(C)C (centres unmarked) [DD] | < 100 nM
13 | CNC(C)C(=O)NC(C(=O)N1CCCC1Cc1c(-c2c(CC3CCCN3C(=O)C(NC(=O)C(C)NC)C(C)OC)c3ccc(F)cc3n2C2OC(C)C(O)C(O)C2O)[nH]c2cc(F)ccc12)C(C)OC (centres unmarked) [EE] | < 100 nM
14 | CNC(C)C(=O)NC(C(=O)N1CC(O)CC1Cc1c(-c2c(CC3CC(O)CN3C(=O)C(NC(=O)C(C)NC)C(C)OC)c3ccc(F)cc3n2C2OC(C)C(O)C(O)C2O)[nH]c2cc(F)ccc12)C(C)OC (centres unmarked) [FF] | < 100 nM
15 | CN[C@@H](C)C(=O)N[C@H](C(=O)N1CCCC1Cc1c(-c2c(C[C@@H]3CCCN3C(=O)[C@@H](NC(=O)[C@H](C)NC)C(C)C)c3ccc(F)cc3n2C2O[C@@H](C)[C@@H](O)[C@@H](O)[C@@H]2O)[nH]c2cc(F)ccc12)C(C)C (some centres unmarked) [V] | < 100 nM
16 | CC(C)C(NC(=O)CN)C(=O)N1CCCC1Cc1c(-c2c(CC3CCCN3C(=O)C(NC(=O)CN)C(C)C)c3ccc(F)cc3n2C2OC(C)C(O)C(O)C2O)[nH]c2cc(F)ccc12 (centres unmarked) [W] | 100 to 1000 nM
17 | CN[C@@H](C)C(=O)N[C@H](C(=O)N1CCC[C@H]1Cc1c(-c2c(C[C@@H]3CCCN3C(=O)[C@@H](NC(=O)[C@H](C)NC)C(C)C)c3ccc(F)cc3n2C2OC[C@@H](O)[C@H](O)[C@H]2O)[nH]c2cc(F)ccc12)C(C)C (some centres unmarked) [Y] | < 100 nM

Same assay, conditions: Table 3, monomeric IAP antagonists (piperidine-substituted)

Row | Structure (SMILES) | Kd
18 | CN[C@@H](C)C(=O)N[C@H](C(=O)N1CCCC1Cc1c(-c2ccc(F)cc2)n(C2CCNCC2)c2cc(F)ccc12)C(C)(C)C (some centres unmarked) [HH] | < 100 nM
19 | CN[C@@H](C)C(=O)N[C@H](C(=O)N1CCC[C@H]1Cc1c(-c2ccc(F)cc2)n(C2CCNCC2)c2cc(F)ccc12)[C@@H](C)OC [II] | < 100 nM
20 | CC[C@H](NC)C(=O)N[C@H](C(=O)N1CCC[C@H]1Cc1c(-c2ccc(F)cc2)n(C2CCNCC2)c2cc(F)ccc12)[C@@H](C)OC [JJ] | < 100 nM
21 | CN[C@H](C(=O)N[C@H](C(=O)N1CCC[C@H]1Cc1c(-c2ccc(F)cc2)n(C2CCNCC2)c2cc(F)ccc12)[C@@H](C)OC)C1CC1 [KK] | 100 to 1000 nM
22 | CN[C@@H](C)C(=O)N[C@H](C(=O)N1C[C@@H](O)C[C@H]1Cc1c(-c2ccc(F)cc2)n(C2CCNCC2)c2cc(F)ccc12)C(C)(C)C [LL] | < 100 nM
23 | CCN[C@@H](C)C(=O)N[C@H](C(=O)N1C[C@@H](O)C[C@H]1Cc1c(-c2ccc(F)cc2)n(C2CCNCC2)c2cc(F)ccc12)C(C)(C)C [MM] | 100 to 1000 nM
24 | CN[C@@H](CO)C(=O)N[C@H](C(=O)N1C[C@@H](O)C[C@H]1Cc1c(-c2ccc(F)cc2)n(C2CCNCC2)c2cc(F)ccc12)C(C)(C)C [NN] | 100 to 1000 nM
25 | CN[C@H](C(=O)N[C@H](C(=O)N1C[C@@H](O)C[C@H]1Cc1c(-c2ccc(F)cc2)n(C2CCNCC2)c2cc(F)ccc12)C(C)(C)C)C1CC1 [OO] | > 10000 nM
26 | CN[C@@H](C)C(=O)N[C@H](C(=O)N1C[C@@H](O)C[C@H]1Cc1c(-c2ccc(F)cc2)n(C2CCNCC2)c2cc(F)ccc12)[C@@H](C)OC [PP] | < 100 nM
27 | CCN[C@@H](C)C(=O)N[C@H](C(=O)N1C[C@@H](O)C[C@H]1Cc1c(-c2ccc(F)cc2)n(C2CCNCC2)c2cc(F)ccc12)[C@@H](C)OC [QQ] | < 100 nM
28 | CC[C@H](NC)C(=O)N[C@H](C(=O)N1C[C@@H](O)C[C@H]1Cc1c(-c2ccc(F)cc2)n(C2CCNCC2)c2cc(F)ccc12)[C@@H](C)OC [RR] | < 100 nM
29 | CN[C@H](C(=O)N[C@H](C(=O)N1C[C@@H](O)C[C@H]1Cc1c(-c2ccc(F)cc2)n(C2CCNCC2)c2cc(F)ccc12)[C@@H](C)OC)C1CC1 [SS] | 100 to 1000 nM
